Data taken from US20150223465A1, “COMPOSITION CONTAINING 3-CYCLOPROPYL-1-ENYL-PROPANOIC ACID SALTS AND A CARRIER” (Yissum Research Development Company of the Hebrew …, priority 2012, published 2015).

Assays:
Assay type in all cases: in vivo, carnation (Dianthus caryophyllus)
cut carnation flowers [1] = experiment: Delaying senescence of cut carnation flowers: loading 24 h in CPAS solution, then 2 ppm ethylene for 24 h, visual inspection/photographs; parameters: key to Results (ethylene antagonizing effect of CPAS by visual inspection): The result “−” means no ethylene antagonizing effect by visual inspection.; The result “+++” means high ethylene antagonizing effect by visual inspection.; The result “++++” means very high ethylene antagonizing effect by visual inspection
From the text: (§1) The ethylene antagonizing effect of composition described herein can be assessed by its effect of delaying senescence of cut plants, such as cut flowers. Some embodiments of the present invention are based on the use of the composition described herein to treat cut flowers for delaying senescence of the cut flowers.
(§2) Cut Flowers: Unless otherwise noted, carnation flowers grown in a greenhouse were harvested at the beginning of flower opening stage, early in the morning, and were immediately brought to the laboratory. The flowers were either processed immediately or stored in a cold room (4° C.) for 1 to 5 days as required.
(§3) Treatment Procedure: The flower stems were cut under tap water to the desired lengths (15 cm-55 cm). Four flowers for each treatment group (of two flowers per each groups) were loaded in a 20 mL aqueous treatment solution (or “loading solution”) for 24 hours. The treatment solution was placed in a 35 mL tube. The loading solutions of CPAS in buffers were prepared in distilled water, as described hereinafter. At the end of CPAS loading, the flowers were transferred to tap water for 1 to 4 days until the cut flowers open. The cut flowers were then exposed to 2 ppm ethylene for 24 hours. Control cut flowers were loaded in a control solution without CPAS in the same manner as the treated cut flowers, and were thereafter exposed to ethylene or air. At the end of ethylene exposure, the flowers were ventilated and left in tap water under controlled conditions (a temperature of 22° C., a relative humidity of 80%, and continuous fluorescent light) for additional 5 days for senescence assessment.

cut carnation flowers [2] = experiment: Flower diameter of cut carnations after CPAS loading and ethylene exposure
Protocol: as §3
Flower Diameter: In some experiments, flower diameter was determined according to the method described in Goren et al., Plant Growth Regulation 65:327-334 (2011), to assess flower quality.

carnation flowers = experiment: Spraying cut carnations with CPAS solution, then 2 ppm ethylene for 24 h
Protocol: Carnation flowers were harvested at the full bloom stage, when the outer petals deflected at right angles to the stem. The flowers were selected for uniformity in terms of flower diameter and placed in tap water. […] The deionized water was used to avoid salt precipitation due to the existence of calcium in tap water. The treatment solution contained a surfactant, Triton-X 100™ (0.05%). Twenty-four hours after the spraying application, the flowers were treated with 2 ppm ethylene for 24 hours. During treatment and during observation of vase-life, the flowers were kept at 22° C. Each treatment was carried out in three replicates, 3 flowers in each replicate.
Carnation flowers were harvested at the full bloom stage, when the outer petals deflected at right angles to the stem. The flowers were selected for uniformity in terms of flower diameter and placed in tap water. The flowers were then sprayed with various concentrations of CPAS (sodium salt) ranging from 15 to 60 ppm dissolved in NaHCO3 (pH 8.2, 20 and 40 mM) in tap water. The treatment solution contained a surfactant, Kinetic® (0.05%). Twenty-four hours after the CPAS spraying application, the flowers were treated with 2 ppm ethylene for 24 hours. During treatment and during observation of vase-life, the flowers were kept 22° C. Each treatment was carried out in three replicates, 3 flowers in each replicate.

cut carnation flowers [3] = experiment: Delaying senescence of cut carnation flowers: loading 24 h in CPAS solution, then 2 ppm ethylene for 24 h, visual inspection/photographs; parameters: key: The result “−” means no ethylene antagonizing effect by visual inspection.; The result “+++” means high ethylene antagonizing effect by visual inspection.; The result “++++” means very high ethylene antagonizing effect by visual inspection; conditions: CPAS sodium salt 20-120 ppm, 36-55 cm stems
From the text: as §1, §2, §3

cut carnation flowers [4] = experiment: as above; parameters: key: The result “−” means no ethylene antagonizing effect by visual inspection.; The result “+” means low ethylene antagonizing effect by visual inspection.; The result “++” means medium ethylene antagonizing effect by visual inspection.; The result “+++” means high ethylene antagonizing effect by visual inspection.; The result “++++” means very high ethylene antagonizing effect by visual inspection; conditions: CPAS sodium salt 20-120 ppm, 36-55 cm stems
From the text: as §1, §2
Treatment Procedure: The flower stems were cut under tap water to the desired lengths (15 cm-55 cm). Four flowers for each treatment group (of two flowers per each groups) were loaded in a 20 mL aqueous treatment solution (or “loading solution”) for 24 hours. The treatment solution was placed in a 35 mL tube. The loading solutions of CPAS in buffers were prepared in distilled water, as described hereinafter. At the end of CPAS loading, the flowers were transferred to tap water for 1 to 4 days until the cut flowers open. The cut flowers were then exposed to 2 ppm ethylene for 24 hours. Control cut flowers were loaded in a control solution without CPAS in the same manner as the treated cut flowers, and were thereafter exposed to ethylene or air. […]

SMILES: O=C([O-])CCC1=CC1.[Na+] [CPAS, 3-cyclopropyl-1-enyl-propanoic acid salt]
- senescence of cut flowers (cut carnation flowers [1]; 36 cm stems, 60 and 120 ppm CPAS in Na-phosphate buffer (20 mM) containing NaHCO3 (60 mM), pH 7.2): delayed senescence
- flower senescence (cut carnation flowers [1]; 60 or 120 ppm CPAS in 20 mM Na2CO3/NaHCO3 buffer pH 9.4, 36 cm stems): delayed flower senescence
- flower senescence (cut carnation flowers [1]; 120 ppm CPAS in 20 mM NaHCO3 pH 8.2, 36 cm stems): delayed flower senescence
- Results (ethylene antagonizing effect of CPAS by visual inspection) (cut carnation flowers [1]; CPAS sodium salt 20-120 ppm in Na2CO3/NaHCO3 buffer 20 mM pH 9.2-9.4): ++++
- Results (ethylene antagonizing effect of CPAS by visual inspection) (cut carnation flowers [1]; CPAS sodium salt 20-120 ppm in Na-Phosphate buffer 20 mM pH 7.6): −
- Results (ethylene antagonizing effect of CPAS by visual inspection) (cut carnation flowers [1]; CPAS sodium salt 20-120 ppm in NaHCO3 20 mM pH 8.2): +++
- senescence of cut flowers (cut carnation flowers [1]; CPAS sodium salt 20-160 ppm in Glycine/NaOH buffer 20 mM pH 8.8, 36 cm stems, loading 24 h): no effect
- senescence of cut flowers (cut carnation flowers [1]; CPAS sodium salt 20-160 ppm in H3BO3/NaOH buffer 20 mM pH 9.2, 36 cm stems, loading 24 h): no effect
- senescence of cut flowers (cut carnation flowers [1]; CPAS sodium salt 20-160 ppm in Na2CO3/NaHCO3 buffer 20 mM pH 9.4, 36 cm stems, loading 24 h): showed delayed senescence
- senescence of cut flowers (cut carnation flowers [1]; stem length 15 cm, 40, 60 and 120 ppm CPAS in 20 mM NaHCO3 pH 8.2): showed delayed senescence
- senescence of cut flowers (cut carnation flowers [1]; stem length 36 cm, 120 mM CPAS (so in the source) in 20 mM NaHCO3 pH 8.2): showed delayed senescence
- senescence of cut flowers (cut carnation flowers [1]; stem length 55 cm, 120 mM CPAS (so in the source) in 20 mM NaHCO3 pH 8.2): No delayed senescence
- senescence of cut flowers (cut carnation flowers [1]; stem length 55 cm, 60 or 120 ppm CPAS in 60 mM Na2CO3/NaHCO3 buffer pH 9.4): showed delayed senescence
- senescence of cut flowers (cut carnation flowers [1]; stem length 55 cm, 120 ppm CPAS in 60 mM NaHCO3 pH 8.2): showed delayed senescence
- senescence of cut flowers as measured by flower diameter (cut carnation flowers [2]; 55 cm stems, 100, 120 or 140 ppm CPAS in Na-phosphate or Na-phosphate/citrate buffer containing NaHCO3): delayed senescence was generally observed
- effect of NaHCO3 concentration (60 or 80 mM) on treatment results (cut carnation flowers [2]; 55 cm stems, CPAS in Na-phosphate buffer (20 mM) containing NaHCO3): did not significantly affect the treatment results
- effect of NaHCO3 concentration (60 or 80 mM) on treatment results (cut carnation flowers [2]; 55 cm stems, CPAS in Na-phosphate/citrate buffer (20 mM) containing NaHCO3): 80 mM NaHCO3 yielding better treatment results than 60 mM NaHCO3
- senescence of cut flowers as measured by flower diameter (cut carnation flowers [2]; stem length 55 cm, 80 or 120 ppm CPAS in 40, 60 or 80 mM Na2CO3/NaHCO3 buffer): delayed senescence
- senescence of cut flowers as measured by flower diameter (cut carnation flowers [2]; stem length 55 cm, 80 ppm CPAS in 80 mM NaHCO3): delayed senescence
- ethylene antagonizing effect compared among NaHCO3 concentrations (cut carnation flowers [2]; stem length 55 cm, 120 ppm CPAS in 60 mM NaHCO3 versus 40 and 80 mM): highest ethylene antagonizing effect
- senescence of cut flowers as measured by flower diameter (cut carnation flowers [2]; stem length 55 cm, 120 ppm CPAS in 40, 60 or 80 mM NaHCO3): delayed senescence
- effect on ethylene-induced flower senescence (carnation flowers; 15 ppm CPAS in NaHCO3 pH 8.2 (20 and 40 mM), Kinetic 0.05%, tap water): little effect
- effect on ethylene-induced flower senescence (carnation flowers; 40 ppm CPAS in Na2CO3/NaHCO3 buffer pH 9.2 below 60 mM, Triton-X 100 0.05%, deionized water): little effect
- effect on ethylene-induced flower senescence (carnation flowers; 80 and 120 ppm CPAS in Na2CO3/NaHCO3 buffer pH 9.2, 40 and 60 mM, Triton-X 100 0.05%): significant effect
- delay of flower senescence, tap water versus DI water (carnation flowers; CPAS in NaHCO3 (40 mM) dissolved in tap water compared with DI water): more efficiently
- effect on ethylene-induced flower senescence (carnation flowers; higher CPAS concentrations (up to 60 ppm) in NaHCO3 pH 8.2 (20 and 40 mM), Kinetic 0.05%, tap water): significantly delayed flower senescence
- Results (efficacy of CPAS, ethylene antagonizing effect by visual inspection) (cut carnation flowers [3]; Glycine/NaOH buffer 20 mM pH 8.8): −
- Results (efficacy of CPAS, ethylene antagonizing effect by visual inspection) (cut carnation flowers [3]; H3BO3/NaOH buffer 20 mM pH 9.2): −
- Results (efficacy of CPAS, ethylene antagonizing effect by visual inspection) (cut carnation flowers [3]; HCl-TRIS buffer 20 mM pH 8.4): −
- Results (efficacy of CPAS, ethylene antagonizing effect by visual inspection) (cut carnation flowers [3]; Isopropylamine 500-1000 ppm pH 11.0): −
- Results (efficacy of CPAS, ethylene antagonizing effect by visual inspection) (cut carnation flowers [3]; K-Citrate/Citric Ac. buffer 20 mM pH 4.65): −
- Results (efficacy of CPAS, ethylene antagonizing effect by visual inspection) (cut carnation flowers [3]; K-Citrate/Citric Ac. buffer 20 mM pH 5.0 with 2,3-butanedione (500 ppm)): −
- Results (efficacy of CPAS, ethylene antagonizing effect by visual inspection) (cut carnation flowers [3]; K-Citrate/Citric Ac. buffer 20 mM pH 5.0 with EMK (5%)): −
- Results (efficacy of CPAS, ethylene antagonizing effect by visual inspection) (cut carnation flowers [3]; K-Citrate/Citric Ac. buffer 20 mM pH 5.0 with PVP (0.5%)): −
- Results (efficacy of CPAS, ethylene antagonizing effect by visual inspection) (cut carnation flowers [3]; Na2B4O7/NaOH buffer 20 mM pH 9.4): −
- Results (efficacy of CPAS, ethylene antagonizing effect by visual inspection) (cut carnation flowers [3]; Na2CO3/NaHCO3 buffer 40 mM pH 9.2-9.4 with Chloramphenicol 150 μM): ++++
- Results (efficacy of CPAS, ethylene antagonizing effect by visual inspection) (cut carnation flowers [3]; Na2CO3/NaHCO3 buffer 20-80 mM pH 9.2-9.4): ++++
- Results (efficacy of CPAS, ethylene antagonizing effect by visual inspection) (cut carnation flowers [3]; Na-Phosphate buffer 20 mM pH 6.0 + NaHCO3 60-80 mM, pH 7.4): +++
- Results (efficacy of CPAS, ethylene antagonizing effect by visual inspection) (cut carnation flowers [3]; Na-Phosphate buffer 20 mM pH 7.6): −
- Results (efficacy of CPAS, ethylene antagonizing effect by visual inspection) (cut carnation flowers [3]; Na-Phosphate/Citrate buffer 20 mM pH 6.0 + NaHCO3 60-80 mM, pH 7.2): +++
- Results (efficacy of CPAS, ethylene antagonizing effect by visual inspection) (cut carnation flowers [3]; NaHCO3 40 mM pH 8.2 with Chloramphenicol 50 μM): +++
- Results (efficacy of CPAS, ethylene antagonizing effect by visual inspection) (cut carnation flowers [3]; NaHCO3 20-80 mM pH 8.2): +++
- Results (efficacy of CPAS, ethylene antagonizing effect by visual inspection) (cut carnation flowers [4]; EDTA 500-1000 ppm): +
- Results (efficacy of CPAS, ethylene antagonizing effect by visual inspection) (cut carnation flowers [4]; KHCO3 20-80 mM pH 8.2): ++
